Tested on: LG0567-F671-PDC KRAS tumor spheroid viability
Experiment: Anticancer human tumor LG0567-F671-PDC patient-derived lung adenocarcinoma cell line growth inhibition [KRAS2]
Conditions: spheroids with HUVEC and MSC; for viability, T/C: stronger effect = lower value
Procedure, shortened: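 KRAS-mutant tumor cells were grown as spheroids with HUVEC endothelial cells and human MSCs as stroma. Targeted agents were tested alone and with KRAS pathway inhibitors. Doses started at or near clinical Cmax, or 10 microM, descending half-log.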

[1] = curve of first compound, second compound 0.1 µM
[2] = curve of first compound, second compound 0.316 µM
[3] = curve of first compound, second compound 1 µM
[4] = curve of first compound, second compound 3.16 µM
[5] = curve of first compound, second compound 10 µM
[6] = second compound 0.1 µM, first compound 0.0316 µM
[7] = second compound 0.1 µM, first compound 0.1 µM
[8] = second compound 0.1 µM, first compound 0.316 µM
[9] = second compound 0.1 µM, first compound 1 µM
[10] = second compound 0.1 µM, first compound 3.16 µM
[11] = second compound 0.1 µM, first compound 10 µM
[12] = second compound 0.316 µM, first compound 0.0316 µM
[13] = second compound 0.316 µM, first compound 0.1 µM
[14] = second compound 0.316 µM, first compound 0.316 µM
[15] = second compound 0.316 µM, first compound 1 µM
[16] = second compound 0.316 µM, first compound 3.16 µM
[17] = second compound 0.316 µM, first compound 10 µM
[18] = second compound 1 µM, first compound 0.0316 µM
[19] = second compound 1 µM, first compound 0.1 µM
[20] = second compound 1 µM, first compound 0.316 µM
[21] = second compound 1 µM, first compound 1 µM
[22] = second compound 1 µM, first compound 3.16 µM
[23] = second compound 1 µM, first compound 10 µM
[24] = second compound 3.16 µM, first compound 0.0316 µM
[25] = second compound 3.16 µM, first compound 0.1 µM
[26] = second compound 3.16 µM, first compound 0.316 µM
[27] = second compound 3.16 µM, first compound 1 µM
[28] = second compound 3.16 µM, first compound 3.16 µM
[29] = second compound 3.16 µM, first compound 10 µM
[30] = second compound 10 µM, first compound 0.0316 µM
[31] = second compound 10 µM, first compound 0.1 µM
[32] = second compound 10 µM, first compound 0.316 µM
[33] = second compound 10 µM, first compound 1 µM
[34] = second compound 10 µM, first compound 3.16 µM
[35] = second compound 10 µM, first compound 10 µM
[36] = second compound 0.1 µM, first compound 0.01 µM
[37] = second compound 0.316 µM, first compound 0.01 µM
[38] = second compound 1 µM, first compound 0.01 µM
[39] = second compound 3.16 µM, first compound 0.01 µM
[40] = second compound 10 µM, first compound 0.01 µM
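Also: drug exposure lasted seven days after spheroids formed for three days.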
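For viability, T/C in this document: 100% = DMSO vehicle control viability.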

Row | Compound | IC50 [1] [nM] | IC50 [2] [nM] | IC50 [3] [nM] | IC50 [4] [nM] | IC50 [5] [nM] | viability, T/C [6] [%] | viability, T/C [7] [%] | viability, T/C [8] [%] | viability, T/C [9] [%] | viability, T/C [12] [%] | viability, T/C [13] [%] | viability, T/C [14] [%] | viability, T/C [15] [%] | viability, T/C [18] [%] | viability, T/C [19] [%] | viability, T/C [20] [%] | viability, T/C [21] [%] | viability, T/C [24] [%] | viability, T/C [25] [%] | viability, T/C [26] [%] | other results
1 | COC(=O)c1ccc2c(C(=Nc3ccc(N(C)C(=O)CN4CCN(C)CC4)cc3)c3ccccc3)c(O)[nH]c2c1 + CC1OCC2(CCN(c3cnc(Sc4ccnc(N)c4Cl)c(N)n3)CC2)C1N | > 10000 | < 31.6 | < 31.6 | < 31.6 | < 31.6 | 55.5 | 50.5 | 47.3 | 57.5 | 29.1 | 29.2 | 26.4 | 39.5 | 25.5 | 23.4 | 23.6 | 30.6 | 19.5 | 20.1 | 19 | viability, T/C [10]: 57.8%; viability, T/C [11]: 51.8%; viability, T/C [16]: 36.3%; viability, T/C [17]: 37.3%; viability, T/C [22]: 38.2%; viability, T/C [23]: 34%; viability, T/C [27]: 24.1%; viability, T/C [28]: 32.5%; viability, T/C [29]: 27.8%; viability, T/C [30]: 13.7%; viability, T/C [31]: 13.9%; viability, T/C [32]: 13.2%; viability, T/C [33]: 19.5%; viability, T/C [34]: 23.6%; viability, T/C [35]: 26.7%
2 | CCNC(=O)CC1N=C(c2ccc(Cl)cc2)c2cc(OC)ccc2-n2c(C)nnc21 (configuration not stated) + CNCc1ccccc1-c1csc(C(C)Nc2nc(C)nc3cc(OC)c(OC)cc23)c1 | 1010 | 602 | 362 | 127 | < 31.6 | 96.7 | 92.1 | 66.1 | 49.9 | 85.4 | 87.6 | 64.1 | 39.2 | 70.2 | 67.6 | 49 | 39 | 72.3 | 62.5 | 1.46 | viability, T/C [10]: 42.1%; viability, T/C [11]: 30%; viability, T/C [16]: 32.7%; viability, T/C [17]: 30.6%; viability, T/C [22]: 29.7%; viability, T/C [23]: 25.5%; viability, T/C [27]: 0.1%; viability, T/C [28]: 2.03%; viability, T/C [29]: 1.27%; viability, T/C [30]: 0.18%; viability, T/C [31]: 0.15%; viability, T/C [32]: 0.22%; viability, T/C [33]: 0.09%; viability, T/C [34]: 0.09%; viability, T/C [35]: 0.15%
3 | CC(=O)OC12COC1CC(O)C1(C)C(=O)C(O)C3=C(C)C(OC(=O)C(O)C(NC(=O)OC(C)(C)C)c4ccccc4)CC(O)(C(OC(=O)c4ccccc4)C21)C3(C)C (configuration not stated) + C=CC(=O)N1CCN(c2nc(=O)n(-c3c(C)ccnc3C(C)C)c3nc(-c4c(O)cccc4F)c(F)cc23)C(C)C1 | < 10 | < 10 | < 10 | < 10 | < 10 | 14.2 | 14.2 | 14.9 | 18.2 | 12 | 12.1 | 12.3 | 16.3 | 10.2 | 10.1 | 12 | 12.8 | 9.62 | 9.62 | 9.52 | viability, T/C [36]: 13.4%; viability, T/C [10]: 13.5%; viability, T/C [37]: 13.7%; viability, T/C [16]: 12.7%; viability, T/C [38]: 12.6%; viability, T/C [22]: 10.6%; viability, T/C [39]: 10.7%; viability, T/C [27]: 13.2%; viability, T/C [28]: 10.1%; viability, T/C [40]: 13.7%; viability, T/C [30]: 14%; viability, T/C [31]: 15.6%; viability, T/C [32]: 14.4%; viability, T/C [33]: 14.5%; viability, T/C [34]: 12.1%
4 | CC1OCC2(CCN(c3cnc(Sc4ccnc(N)c4Cl)c(N)n3)CC2)C1N (configuration not stated) + C=CC(=O)N1CCN(c2nc(=O)n(-c3c(C)ccnc3C(C)C)c3nc(-c4c(O)cccc4F)c(F)cc23)C(C)C1 | < 31.6 | < 31.6 | < 31.6 | < 31.6 | < 31.6 | 17.5 | 13.5 | 8.87 | 5.62 | 17.9 | 13.2 | 8.99 | 4.26 | 16.2 | 15.9 | 10.2 | 4.27 | 16.6 | 11.6 | 7.63 | viability, T/C [10]: 3.47%; viability, T/C [11]: 2.54%; viability, T/C [16]: 2.66%; viability, T/C [17]: 2.19%; viability, T/C [22]: 5.62%; viability, T/C [23]: 2.9%; viability, T/C [27]: 4%; viability, T/C [28]: 1.9%; viability, T/C [29]: 3.71%; viability, T/C [30]: 17.6%; viability, T/C [31]: 13.8%; viability, T/C [32]: 8.61%; viability, T/C [33]: 4.3%; viability, T/C [34]: 3.58%; viability, T/C [35]: 3.08%
5 | CCN1CCN(Cc2ccc(Nc3ncc(F)c(-c4cc(F)c5nc(C)n(C(C)C)c5c4)n3)nc2)CC1 + CNCc1ccccc1-c1csc(C(C)Nc2nc(C)nc3cc(OC)c(OC)cc23)c1 | 493 | 68.2 | 6.43 | 13.7 | < 3.16 | 65 | 62.6 | 50.1 | 47.3 | 51.1 | 54.8 | 43.8 | 42 | 44.3 | 37.8 | 39.9 | 33.9 | 0.63 | 11.6 | 3.01 | viability, T/C (second compound 0.1 µM, first compound 0.00316 µM): 78%; viability, T/C [36]: 76.3%; viability, T/C (second compound 0.316 µM, first compound 0.00316 µM): 77.2%; viability, T/C [37]: 60.5%; viability, T/C (second compound 1 µM, first compound 0.00316 µM): 52%; viability, T/C [38]: 50.5%; viability, T/C (second compound 3.16 µM, first compound 0.00316 µM): 60.6%; viability, T/C [39]: 74.2%; viability, T/C [27]: 0.17%; viability, T/C (second compound 10 µM, first compound 0.00316 µM): 0.18%; viability, T/C [40]: 0.15%; viability, T/C [30]: 0.13%; viability, T/C [31]: 0.12%; viability, T/C [32]: 0.13%; viability, T/C [33]: 0.18%
6 | Cn1nccc1Nc1nccc(-c2cc3c(s2)C(C)(C)N(CCN2CCOCC2)C3=O)n1 | – | – | – | – | – | – | – | – | – | – | – | – | – | – | – | – | – | – | – | – | viability, T/C (compound 0.0316 µM): 95.8% [middle of 5 runs]; viability, T/C (compound 0.1 µM): 89.5% [middle of 5 runs]; viability, T/C (compound 0.316 µM): 74.6% [middle of 5 runs]; viability, T/C (compound 1 µM): 53.3% [middle of 5 runs]; viability, T/C (compound 3.16 µM): 37.5% [middle of 4 runs]; viability, T/C (compound 10 µM): 30.1% [middle of 5 runs]; IC50 (curve of compound): 1.25 µM [middle of 5 runs]
